Assay results from paper PMC9820430, “New Affordable Methods for Large-Scale Isolation of Major Olive Secoiridoids and Systematic Comparative Study of Their Antiproliferative/Cytotoxic Effect on Multiple Cancer Cell Lines of Different Cancer Origins” (International Journal of Molecular Sciences, 2022).

Columns and labels:
[1] = test system: MCF-7; experiment: ATP-based luminescence cell viability assay (ViaLight), 72 h; parameters: species or system human; conditions: Homo sapiens, MCF7, 72 h, 72 h treatment, read-out: EC50 Values of Olive Oil Polyphenols
Description: (§1) The antiproliferative/cytotoxic effects of the selected OOPs on each cell line were assessed by measuring the cellular ATP levels after 72 h treatments using an ATP-based luminescence assay. This assay, initially developed as a tumor chemosensitivity assay, has shown considerable promise as a general in vitro toxicity assay due to its high sensitivity that allows the detection of a small number of cells. Consequently, it can be applied to both cancer cell lines and primary tissue cells. […] The EC50 values were calculated by nonlinear regression (curve fit) using a sigmoidal dose–response equation (Figure 2A and Figure S2).
(§2) The OOPs tested in this study were first dissolved in an appropriate DMSO volume such as to prepare a final stock solution of 50 mM, which was further used to prepare various compound concentrations in DMSO-based solutions. The final DMSO concentration in the cell culture was maintained constant in all treated groups of any given experiment and never exceeded the value of 0.2% (v/v). For the treatment experiments, cells were plated in 96-well culture plates, in 100 μL of complete medium at a seeding density of 5000–10,000 cells/well—depending on cells’ size and doubling time—and were allowed to adhere overnight (~16 h). The next day, 150 μL of complete medium was added to each well and the cells were treated with various concentrations of OOPs. Each concentration was tested in triplicate and was repeated 2–3 times. To prepare the final concentration solutions, 0.5 μL of a 500× stock of each tested compound in DMSO was added directly into each well in a final volume of 250 μL culture medium and was gently mixed by pipetting. Control wells were prepared under the same experimental conditions by adding only DMSO at a final concentration of 0.2% (v/v). Compounds were not renewed during the entire period of cell exposure. All cells were cultured at 37 °C in a 5% (v/v) CO2 for 24, 48 or 72 h.
(§3) Briefly, after the treatment with OOPs, the adapted medium was removed from the dish wells and the cells were washed twice with medium without FBS. Then, the C-lysis (LT27-076) was diluted in PBS (1:2) and a volume of 50 μL was added to each well. Cells were incubated with C-lysis for at least 10 min. Finally, an equal volume of lysed cells from each well and ATP monitoring reagent (AMR; LT27-212) was transferred to the wells of a white-walled illuminometer plate (Greiner bio-one; 655074). Cell viability was quantified by measuring luminescence using a multi-mode microplate reader Safire^2 Tecan (software Magellan V6.00 STD.2PC WIN.20000/XP).

[2] = test system: MDA-MB 231; experiment: as above; parameters: species or system human; conditions: Homo sapiens, MDA-MB-231, 72 h, MDA-MB 231; 72 h treatment; read-out: EC50 Values of Olive Oil Polyphenols
Description: as §1, §2, §3

[3] = test system: SK-BR-3; experiment: as above; parameters: species or system human; conditions: Homo sapiens, SK-BR-3, 72 h, SK-BR-3; 72 h treatment; read-out: EC50 Values of Olive Oil Polyphenols
Description: as §1, §2, §3

[4] = test system: three breast cancer cell lines (MDA-MB-231, SK-BR-3 and MCF-7); experiment: ATP-based luminescence cell viability assay, breast panel; parameters: species or system human
Description: as §1
The calculated EC50 values ranged between 9.1–100 μΜ (Table 1). The bioactivity of the oleocanthalic acid (7), studied here for the first time for its antiproliferative/cytotoxic activity, was initially evaluated systematically in the three breast cancer cell lines using a concentration range of 10–100 μM. In all cases, the viability measured was ≥80%, predicting EC50 values > 100 μΜ. […] For this reason, oleocanthalic acid (7) was excluded from the rest of this study.
as §2
Briefly, after the treatment with OOPs, the adapted medium was removed from the dish wells and the cells were washed twice with medium without FBS. Then, the C-lysis (LT27-076) was diluted in PBS (1:2) and a volume of 50 μL was added to each well. […] Cell viability was quantified by measuring luminescence using a multi-mode microplate reader Safire^2 Tecan (software Magellan V6.00 STD.2PC WIN.20000/XP).

[5] = test system: sixteen human cancer cell lines originating from eight different tissues; experiment: ATP-based luminescence cell viability assay, whole panel
Description: as §1, §2, §3

EC50 [1]: > 100 µM | EC50 [2]: > 100 µM | EC50 [3]: > 100 µM | EC50 ([4]; Homo sapiens, MDA-MB-231, SK-BR-3 and MCF-7, 72 h): > 100 µM | EC50 ([5]; Homo sapiens, 72 h treatment, range across cancer cell lines, read-out: EC50, range over the cancer cell lines): > 100 µM
Structure (SMILES): C/C=C(/C=O)[C@@H](CC(=O)O)CC(=O)OCCc1ccc(O)cc1 [compound 7, oleocanthalic acid]
viability measured ([4]; three breast cancer cell lines, concentration range of 10–100 μM): ≥ 80% | Bioactivity range on cancer cell lines (grade in words) ([5]; Figure 3, sixteen cancer cell lines): Low activity
